Calls of active or inactive are those of the source. How the calls were made is not given here.
Tested on: CCRIS mutagenicity, Ames/micronucleus/aberration tests
Assay: CCRIS mutagenicity studies
[1] = Test System: AMES SALMONELLA TYPHIMURIUM, Strain/Indicator: TA98, Metabolic Activation: NONE, Method: PREINCUBATION
[2] = Test System: AMES SALMONELLA TYPHIMURIUM, Strain/Indicator: TA100, Metabolic Activation: NONE, Method: PREINCUBATION

Q: Which mutagenic call (Test System: AMES SALMONELLA TYPHIMURIUM, Strain/Indicator: TA98(1,8-DNP6), Metabolic Activation: NONE, Method: PREINCUBATION) does the source give for `CC(=O)Nc1ccc(Oc2ccc(N(O)C=O)cc2)cc1` here?
A: Its mutagenic call is “active; positive”.

Q: What about the mutagenic call (Test System: AMES SALMONELLA TYPHIMURIUM, Strain/Indicator: TA98(1,8-DNP6), Metabolic Activation: RAT, LIVER, S-9, AROCLOR 1254, Method: PREINCUBATION) of the same compound?
A: The mutagenic call was “active; positive”.

Q: What about the mutagenic call (Test System: AMES SALMONELLA TYPHIMURIUM, Strain/Indicator: TA98(NR), Metabolic Activation: NONE, Method: PREINCUBATION) of the same compound?
A: Its mutagenic call is “active; positive”.

Q: And the mutagenic call (Test System: AMES SALMONELLA TYPHIMURIUM, Strain/Indicator: TA98(NR), Metabolic Activation: RAT, LIVER, S-9, AROCLOR 1254, Method: PREINCUBATION)?
A: Its mutagenic call is “active; positive”.

Q: What about the mutagenic call [1] of the same compound?
A: The mutagenic call was “active; positive”.

Q: And the mutagenic call (Test System: AMES SALMONELLA TYPHIMURIUM, Strain/Indicator: TA98, Metabolic Activation: RAT, LIVER, S-9, AROCLOR 1254, Method: PREINCUBATION)?
A: The mutagenic call was “active; positive”.

Q: And the mutagenic call (Test System: AMES SALMONELLA TYPHIMURIUM, Strain/Indicator: TA100(NR), Metabolic Activation: NONE, Method: PREINCUBATION)?
A: The mutagenic call was “active; positive”.

Q: And the mutagenic call (Test System: AMES SALMONELLA TYPHIMURIUM, Strain/Indicator: TA100(NR), Metabolic Activation: RAT, LIVER, S-9, AROCLOR 1254, Method: PREINCUBATION)?
A: Its mutagenic call is “active; positive”.

Q: What about the mutagenic call [2] of the same compound?
A: The mutagenic call was “active; positive”.

Q: And the mutagenic call (Test System: AMES SALMONELLA TYPHIMURIUM, Strain/Indicator: TA100, Metabolic Activation: RAT, LIVER, S-9, AROCLOR 1254, Method: PREINCUBATION)?
A: Its mutagenic call is “active; positive”.

Q: Which mutagenic call [1] does the source give for `[O-][Cl+3]([O-])([O-])O` here?
A: Its mutagenic call is “inactive; negative”.

Q: What about the mutagenic call (Test System: AMES SALMONELLA TYPHIMURIUM, Strain/Indicator: TA98, Metabolic Activation: RAT LIVER S-9, PHENOBARBITAL AND BETA-NAPHTHOFLAVONE, Method: PREINCUBATION) of the same compound?
A: The mutagenic call was “inactive; negative”.

Q: And the mutagenic call [2]?
A: The mutagenic call was “inactive; negative”.

Q: And the mutagenic call (Test System: AMES SALMONELLA TYPHIMURIUM, Strain/Indicator: TA100, Metabolic Activation: RAT LIVER S-9, PHENOBARBITAL AND BETA-NAPHTHOFLAVONE, Method: PREINCUBATION)?
A: The mutagenic call was “inactive; negative”.

Q: What about the mutagenic call (Test System: AMES SALMONELLA TYPHIMURIUM, Strain/Indicator: TA1535, Metabolic Activation: NONE, Method: PREINCUBATION) of the same compound?
A: Its mutagenic call is “inactive; negative”.

Q: And the mutagenic call (Test System: AMES SALMONELLA TYPHIMURIUM, Strain/Indicator: TA1535, Metabolic Activation: RAT LIVER S-9, PHENOBARBITAL AND BETA-NAPHTHOFLAVONE, Method: PREINCUBATION)?
A: The mutagenic call was “inactive; negative”.

Q: And the mutagenic call (Test System: AMES SALMONELLA TYPHIMURIUM, Strain/Indicator: TA1537, Metabolic Activation: NONE, Method: PREINCUBATION)?
A: Its mutagenic call is “inactive; negative”.

Q: And the mutagenic call (Test System: AMES SALMONELLA TYPHIMURIUM, Strain/Indicator: TA1537, Metabolic Activation: RAT LIVER S-9, PHENOBARBITAL AND BETA-NAPHTHOFLAVONE, Method: PREINCUBATION)?
A: The mutagenic call was “inactive; negative”.

Q: And the mutagenic call (Test System: AMES SALMONELLA TYPHIMURIUM, Strain/Indicator: TA1538, Metabolic Activation: NONE, Method: PREINCUBATION)?
A: The mutagenic call was “inactive; negative”.

Q: And the mutagenic call (Test System: AMES SALMONELLA TYPHIMURIUM, Strain/Indicator: TA1538, Metabolic Activation: RAT LIVER S-9, PHENOBARBITAL AND BETA-NAPHTHOFLAVONE, Method: PREINCUBATION)?
A: Its mutagenic call is “inactive; negative”.

Q: And the mutagenic call (Test System: E.COLI, Strain/Indicator: WP2UVRA, Metabolic Activation: NONE, Method: PREINCUBATION)?
A: The mutagenic call was “inactive; negative”.

Q: And the mutagenic call (Test System: E.COLI, Strain/Indicator: WP2UVRA, Metabolic Activation: RAT LIVER S-9, PHENOBARBITAL AND BETA-NAPHTHOFLAVONE, Method: PREINCUBATION)?
A: Its mutagenic call is “inactive; negative”.

Q: For `COC(=O)C(N)Cc1ccc(Cl)cc1` (centres undefined), which mutagenic call (Test System: AMES SALMONELLA TYPHIMURIUM, Strain/Indicator: TA98, Metabolic Activation: NONE) is on record?
A: The mutagenic call was “inactive; negative”.

Q: And the mutagenic call (Test System: AMES SALMONELLA TYPHIMURIUM, Strain/Indicator: TA100, Metabolic Activation: NONE)?
A: Its mutagenic call is “inactive; negative”.

Q: And the mutagenic call (Test System: AMES SALMONELLA TYPHIMURIUM, Strain/Indicator: TA1535, Metabolic Activation: NONE)?
A: Its mutagenic call is “inactive; negative”.

Q: And the mutagenic call (Test System: AMES SALMONELLA TYPHIMURIUM, Strain/Indicator: TA1537, Metabolic Activation: NONE)?
A: The mutagenic call was “inactive; negative”.

Q: And the mutagenic call (Test System: E. COLI, Strain/Indicator: AB2462 UVRA, Metabolic Activation: NONE, Method: SPOT TEST)?
A: Its mutagenic call is “inactive; negative”.

Q: What about the mutagenic call (Test System: E. COLI, Strain/Indicator: WP6 POLA, Metabolic Activation: NONE, Method: SPOT TEST) of the same compound?
A: Its mutagenic call is “inactive; negative”.

Q: How did the mutagenic call (Test System: AMES SALMONELLA TYPHIMURIUM, Strain/Indicator: TA98, Metabolic Activation: NONE, Method: STANDARD PLATE) turn out when `O=C1CCC2(O)c3c(ccc(O)c31)-c1ccc(O)c3c1C2C1OC1C3=O` (centres undefined) was run?
A: Its mutagenic call is “active; positive”.

Q: What about the mutagenic call (Test System: AMES SALMONELLA TYPHIMURIUM, Strain/Indicator: TA98, Metabolic Activation: RAT, LIVER, S-9, AROCLOR 1254, Method: STANDARD PLATE) of the same compound?
A: The mutagenic call was “active; positive”.

Q: And the mutagenic call (Test System: AMES SALMONELLA TYPHIMURIUM, Strain/Indicator: TA100, Metabolic Activation: NONE, Method: STANDARD PLATE)?
A: The mutagenic call was “active; positive”.

Q: And the mutagenic call (Test System: AMES SALMONELLA TYPHIMURIUM, Strain/Indicator: TA100, Metabolic Activation: RAT, LIVER, S-9, AROCLOR 1254, Method: STANDARD PLATE)?
A: Its mutagenic call is “active; positive”.

Q: And the mutagenic call (Test System: AMES SALMONELLA TYPHIMURIUM, Strain/Indicator: TA1537, Metabolic Activation: NONE, Method: STANDARD PLATE)?
A: Its mutagenic call is “active; positive”.

Q: What about the mutagenic call (Test System: AMES SALMONELLA TYPHIMURIUM, Strain/Indicator: TA1537, Metabolic Activation: RAT, LIVER, S-9, AROCLOR 1254, Method: STANDARD PLATE) of the same compound?
A: Its mutagenic call is “active; positive”.

Source: PubChem BioAssay AID1259407 (Chemical Carcinogenesis Research Information System (CCRIS), 2018)
